{
  "source": "patent US11466044B2",
  "about": "(WAYNE STATE UNIVERSITY, priority 2017, dated 2022)",
  "key": {"E coli wild type": {"system": "E coli wild type", "assay": "MIC by broth microdilution, wild type E coli", "format": "cell-based", "details": "Escherichia coli"}, "P aeruginosa": {"system": "P aeruginosa", "assay": "MIC by broth microdilution, P aeruginosa isolates", "format": "cell-based, Pseudomonas aeruginosa"}, "[1]": {"system": "Klebsiella pneumonia AG215", "assay": "MIC by broth microdilution, Klebsiella pneumonia", "format": "cell-based", "details": "Klebsiella pneumoniae; strain AG215 Klebsiella pneumonia; read-out: MIC AG215 K. pneumon"}, "[2]": {"system": "Acinetobacter baumannii pittii AG225", "assay": "MIC by broth microdilution, Acinetobacter baumannii", "format": "cell-based", "details": "strain AG225 Acinetobacter baumannii pittii"}, "[3]": {"system": "wild type bacterial ribosomes", "assay": "in-vitro translation assay, bacterial ribosomes", "format": "biochemical", "text": "The antiribosomal activity of these compounds was investigated with cell-free translation assays using both wild type bacterial ribosomes and hybrid ribosomes carrying eukaryotic decoding A sites enabling the prediction of selectivity."}, "N. gonorrhoeae": {"system": "N. gonorrhoeae", "assay": "Disk diffusion, N. gonorrhoeae", "format": "cell-based", "details": "Neisseria gonorrhoeae"}, "MRSA": {"system": "MRSA", "assay": "MIC by broth microdilution, MRSA isolates", "format": "cell-based", "details": "for MIC50 / MIC: Staphylococcus aureus, MRSA"}, "[4]": {"system": "rabbit reticulocyte ribosomes", "assay": "in-vitro translation assay, rabbit reticulocyte ribosomes", "format": "biochemical", "details": "mammalian cytosolic ribosomes (rabbit)"}, "[5]": {"system": "E coli carrying specific resistance determinants", "assay": "MIC by broth microdilution, E coli carrying specific resistance determinants", "format": "cell-based", "details": "for MIC50: Escherichia coli, Table 2A (Example 2)"}},
  "note": "Where two headings read alike, the source gives them in different places.",
  "data": [
    {"smiles": "NC[C@@H]1O[C@H](O[C@H]2[C@@H](O)[C@H](O[C@@H]3[C@@H](O)[C@H](N)C[C@H](N)[C@H]3O[C@H]3O[C@H](CO)[C@@H](O)[C@H](O)[C@H]3N)O[C@@H]2CO)[C@H](N)[C@@H](O)[C@@H]1O", "note": "[paromomycin, reference compound]", "values": [
      {"measurement": "MIC", "setting": "E coli wild type; AG006 wt, Table 2 (Example 1), read-out: MIC E coli AG006 wt", "result": "1 to 2", "unit": "µg/mL"},
      {"measurement": "MIC", "setting": "E coli wild type; AG102 wt, Table 2 (Example 1), read-out: MIC E coli AG102 wt", "result": 1, "unit": "µg/mL"},
      {"measurement": "MIC", "setting": "E coli wild type; AG160 wt, Table 2 (Example 1), read-out: MIC E coli AG160 wt", "result": "2 to 4", "unit": "µg/mL"},
      {"measurement": "MIC", "setting": "E coli wild type; ATCC25922, strain AG212 E. coli (ATCC25922), read-out: MIC AG212 E. coli", "result": "2 to 4", "unit": "µg/mL"},
      {"measurement": "MIC50", "setting": "E coli wild type; BM13 (AG06) wt, Table 2A (Example 2), read-out: MIC50 E coli BM13 (AG06) wt", "result": "2 to 4", "unit": "µg/mL"},
      {"measurement": "MIC", "setting": "E coli wild type; E. coli strain pH430, WT, read-out: MIC pH430 WT", "result": "1 to 2", "unit": "µg/mL"},
      {"measurement": "MIC", "setting": "E coli wild type; WT, Table 3 (Example 1), read-out: MIC WT", "result": "1 to 2", "unit": "µg/mL"},
      {"measurement": "MIC", "setting": "E coli wild type; WT, Table 3 (Example 2), read-out: MIC WT", "result": "1 to 2", "unit": "µg/mL"},
      {"measurement": "MIC", "setting": "E coli wild type; WT, Table 4 (Example 3), read-out: MIC E. coli WT", "result": "1 to 2", "unit": "µg/mL"},
      {"measurement": "MIC", "setting": "E coli wild type; WT, Table 5 (Example 3), read-out: MIC E. coli WT", "result": "1 to 2", "unit": "µg/mL"},
      {"measurement": "MIC", "setting": "E coli wild type; clinical isolate AG001, WT, read-out: MIC AG001 E. coli WT", "result": 2, "unit": "µg/mL"},
      {"measurement": "MIC", "setting": "E coli wild type; clinical isolate AG001, Table 1 (Example 3), read-out: MIC E coli AG001", "result": "16 to 32", "unit": "µg/mL"},
      {"measurement": "MIC", "setting": "E coli wild type; clinical isolate AG003, Table 1 (Example 3), read-out: MIC E coli AG003", "result": "8 to 16", "unit": "µg/mL"},
      {"measurement": "MIC", "setting": "E coli wild type; clinical isolate AG055, WT, read-out: MIC AG055 E. coli WT", "result": 2, "unit": "µg/mL"},
      {"measurement": "MIC", "setting": "E coli wild type; clinical isolate AG055, Table 1 (Example 3), read-out: MIC E coli AG055", "result": 8, "unit": "µg/mL"},
      {"measurement": "MIC", "setting": "E coli wild type; clinical isolate AG160 WT, Table 2 (Example 4), read-out: MIC AG160 E. coli WT", "result": "2 to 4", "unit": "µg/mL"},
      {"measurement": "MIC", "setting": "E coli wild type; engineered strain pH430 WT, Table 2 (Example 4), read-out: MIC pH430 E. coli WT", "result": "1 to 2", "unit": "µg/mL"},
      {"measurement": "MIC50", "setting": "E coli wild type; read-out: MIC50 E coli pH430 WT", "result": "1 to 2", "unit": "µg/mL"},
      {"measurement": "MIC", "setting": "E coli wild type; read-out: MIC E coli AG006 Wild type, AG006 Wild type, Table 2 (Example 3)", "result": 2, "unit": "µg/mL"},
      {"measurement": "MIC", "setting": "E coli wild type; read-out: MIC E coli AG104 Wild type, AG104 Wild type, Table 2 (Example 3)", "result": 2, "unit": "µg/mL"},
      {"measurement": "MIC50", "setting": "E coli wild type; strain AG01, Table 1 (Example 1), read-out: MIC50 E coli AG01", "result": "2 to 4", "unit": "µg/mL"},
      {"measurement": "MIC50", "setting": "E coli wild type; strain AG01, Table 1 (Example 2), read-out: MIC50 E coli AG01", "result": "2 to 4", "unit": "µg/mL"},
      {"measurement": "MIC50", "setting": "E coli wild type; strain AG03, Table 1 (Example 1), read-out: MIC50 E coli AG03", "result": 4, "unit": "µg/mL"},
      {"measurement": "MIC50", "setting": "E coli wild type; strain AG03, Table 1 (Example 2), read-out: MIC50 E coli AG03", "result": 4, "unit": "µg/mL"},
      {"measurement": "MIC50", "setting": "E coli wild type; strain AG55, Table 1 (Example 1), read-out: MIC50 E coli AG55", "result": "2 to 4", "unit": "µg/mL"},
      {"measurement": "MIC50", "setting": "E coli wild type; strain AG55, Table 1 (Example 2), read-out: MIC50 E coli AG55", "result": "2 to 4", "unit": "µg/mL"},
      {"measurement": "MIC50", "setting": "P aeruginosa; Pseudomonas aeruginosa, read-out: MIC50 P aeruginosa AG31", "result": "> 128", "unit": "µg/mL"},
      {"measurement": "MIC50", "setting": "P aeruginosa; Pseudomonas aeruginosa, read-out: MIC50 P aeruginosa AG32", "result": "> 128", "unit": "µg/mL"},
      {"measurement": "MIC50", "setting": "P aeruginosa; Pseudomonas aeruginosa, read-out: MIC50 P aeruginosa AG33", "result": "> 128", "unit": "µg/mL"},
      {"measurement": "MIC50", "setting": "P aeruginosa; Pseudomonas aeruginosa, read-out: MIC50 P aeruginosa AG86", "result": "> 128", "unit": "µg/mL"},
      {"measurement": "MIC", "setting": "P aeruginosa; Pseudomonas aeruginosa, read-out: MIC AG031 P. aer. APH(3′)-II", "result": "> 128", "unit": "µg/mL"},
      {"measurement": "MIC", "setting": "P aeruginosa; Pseudomonas aeruginosa, read-out: MIC AG032 P. aer. APH(3′)-II", "result": "> 128", "unit": "µg/mL"},
      {"measurement": "MIC50 P aeruginosa AG31", "setting": "P aeruginosa; strain AG31, Table 1 (Example 2)", "result": ">128", "unit": "µg/mL"},
      {"measurement": "MIC50 P aeruginosa AG32", "setting": "P aeruginosa; strain AG32, Table 1 (Example 2)", "result": ">128", "unit": "µg/mL"},
      {"measurement": "MIC50 P aeruginosa AG33", "setting": "P aeruginosa; strain AG33, Table 1 (Example 2)", "result": ">128", "unit": "µg/mL"},
      {"measurement": "MIC50 P aeruginosa AG86", "setting": "P aeruginosa; strain AG86, Table 1 (Example 2)", "result": ">128", "unit": "µg/mL"},
      {"measurement": "MIC", "setting": "P aeruginosa; strain AG220 Pseudomonas aeruginosa ATCC27853, read-out: MIC AG220 P. aerugin", "result": "> 64", "unit": "µg/mL"},
      {"measurement": "MIC", "setting": "[1]", "result": 1, "unit": "µg/mL"},
      {"measurement": "MIC", "setting": "[2]", "result": 2, "unit": "µg/mL"},
      {"measurement": "IC50", "setting": "[3]; Mycobacterium smegmatis ribosomes, read-out: IC50 Bacterial", "result": 40, "unit": "nM"},
      {"measurement": "IC50", "setting": "[3]; bacterial ribosome, Table 3 (Example 1), read-out: IC50 Bac", "result": 40, "unit": "nM"},
      {"measurement": "IC50", "setting": "[3]; bacterial ribosome, Table 3 (Example 2), read-out: IC50 Bac", "result": 40, "unit": "nM"},
      {"measurement": "IC50", "setting": "[3]; bacterial ribosome, Table 4 (Example 3), read-out: IC50 Bac", "result": 40, "unit": "nM"},
      {"measurement": "zone of inhibition at 25 nmol/disc", "setting": "N. gonorrhoeae", "result": 9, "unit": "mm"},
      {"measurement": "MIC50", "setting": "MRSA; read-out: MIC50 MRSA AG39", "result": "> 256", "unit": "µg/mL"},
      {"measurement": "MIC50", "setting": "MRSA; read-out: MIC50 MRSA AG42", "result": "> 256", "unit": "µg/mL"},
      {"measurement": "MIC", "setting": "MRSA; read-out: MIC AG039 MRSA AAC(6′)-I ANT(4′)-I", "result": "> 256", "unit": "µg/mL"},
      {"measurement": "MIC", "setting": "MRSA; read-out: MIC AG042 MRSA AAC(6′)-I ANT(4′)-I APH(2′)", "result": "> 256", "unit": "µg/mL"},
      {"measurement": "MIC", "setting": "MRSA; read-out: MIC MRSA AG039", "result": "> 256", "unit": "µg/mL"},
      {"measurement": "MIC", "setting": "MRSA; read-out: MIC MRSA AG042", "result": "> 256", "unit": "µg/mL"},
      {"measurement": "MIC50", "setting": "MRSA; strain AG38, Table 1 (Example 1), read-out: MIC50 MRSA AG38", "result": 4, "unit": "µg/mL"},
      {"measurement": "MIC50", "setting": "MRSA; strain AG38, Table 1 (Example 2), read-out: MIC50 MRSA AG38", "result": 4, "unit": "µg/mL"},
      {"measurement": "MIC50", "setting": "MRSA; strain AG44, Table 1 (Example 1), read-out: MIC50 MRSA AG44", "result": "4 to 8", "unit": "µg/mL"},
      {"measurement": "MIC50", "setting": "MRSA; strain AG44, Table 1 (Example 2), read-out: MIC50 MRSA AG44", "result": "4 to 8", "unit": "µg/mL"},
      {"measurement": "MIC", "setting": "MRSA; clinical isolate AG038, Table 1 (Example 3), read-out: MIC MRSA AG038", "result": 4, "unit": "µg/mL"},
      {"measurement": "MIC", "setting": "MRSA; clinical isolate AG038, read-out: MIC AG038 MRSA", "result": 4, "unit": "µg/mL"},
      {"measurement": "MIC", "setting": "MRSA; clinical isolate AG044, Table 1 (Example 3), read-out: MIC MRSA AG044", "result": "4 to 8", "unit": "µg/mL"},
      {"measurement": "MIC", "setting": "MRSA; clinical isolate AG044, read-out: MIC AG044 MRSA", "result": "4 to 8", "unit": "µg/mL"},
      {"measurement": "MIC50 MRSA AG39", "setting": "MRSA; strain AG39, Table 1 (Example 2)", "result": ">256", "unit": "µg/mL"},
      {"measurement": "MIC50 MRSA AG42", "setting": "MRSA; strain AG42, Table 1 (Example 2)", "result": ">256", "unit": "µg/mL"},
      {"measurement": "IC50", "setting": "[4]", "result": 21000, "unit": "nM"},
      {"measurement": "MIC APH(3′)-II", "setting": "[5]; APH(3′)-II, Table 3 (Example 2)", "result": ">64", "unit": "µg/mL"},
      {"measurement": "MIC50", "setting": "[5]; read-out: MIC50 E coli AG07 AAC(3), AG07 AAC(3)", "result": "4 to 8", "unit": "µg/mL"},
      {"measurement": "MIC50", "setting": "[5]; read-out: MIC50 E coli AG09 AAC(6′), AG09 AAC(6′)", "result": "8 to 16", "unit": "µg/mL"}
    ]}
  ]
}
